The values that follow come from patent US9113629B2, “4-amino-6-(4-substituted-phenyl)-picolinates and 6-amino-2-(4-substituted-phenyl)-pyrimidine-4-carboxylates and their use as herbicides” (DOW AGROSCIENCES LLC, priority 2013, dated 2015).

Like-named read-outs stand apart in the source and are kept apart here.

The subject of data set [1] is Key Broadleaf Weed and Crop Species. Put plainly: Post-emergent Test II herbicidal activity (Table 5). It counts as in vivo. The following applies: post-emergence, 336 h, 140 g ai/ha, post-emergent, 14 days after application. Put shortly: (§1)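 Injury was rated visually 14 d after treatment on a 0–100% scale against untreated controls. Test compounds, formulated with crop oil concentrate and surfactant and serially diluted down to 1/16× of the top rate, were applied by track sprayer at 187 L/ha onto first- to second-true-leaf seedlings.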

Data set [2] relates to Key Grass and Sedge Weeds as well as Grass Crops. Kind of data set: Post-emergent Test II herbicidal activity (Table 6). In kind it is in vivo. The following applies: post-emergence, 336 h, application rate 140 g ai/ha. The gist of the method:
as §1

Where [3] appears, read: ABUTH: velvetleaf (Abutilon theophrasti), read-out: Visual Growth Reduction (%) 14 Days After Application ABUTH.
The mark [4] stands for this setting: AMARE: redroot pigweed (Amaranthus retroflexus), read-out: Visual Growth Reduction (%) 14 Days After Application AMARE.
The mark [5] stands for this setting: BRSNN: oilseed-rape, canola (Brassica napus), read-out: Visual Growth Reduction (%) 14 Days After Application BRSNN.
The mark [6] stands for this setting: CHEAL: lambsquarters (Chenopodium album), read-out: Visual Growth Reduction (%) 14 Days After Application CHEAL.
[7] abbreviates: EPHHL: wild poinsettia (Euphorbia heterophylla), read-out: Visual Growth Reduction (%) 14 Days After Application EPHHL.
Where [8] appears, read: HELAN: sunflower (Helianthus annuus), read-out: Visual Growth Reduction (%) 14 Days After Application HELAN.
The mark [9] stands for this setting: VIOTR: wild pansy (Viola tricolor), read-out: Visual Growth Reduction (%) 14 Days After Application VIOTR.
Where [10] appears, read: Triticum aestivum, TRZSS (wheat), read-out: Visual Growth Reduction (%) 14 Days After Application, TRZSS.
Setting [11] is: CYPES: yellow nutsedge (Cyperus esculentus), read-out: Visual Growth Reduction (%) 14 Days After Application, CYPES.
Setting [12] is: DIGSA: crabgrass (Digitaria sanguinalis), read-out: Visual Growth Reduction (%) 14 Days After Application, DIGSA.
[13] abbreviates: ECHCG: barnyardgrass (Echinochloa crus-galli), read-out: Visual Growth Reduction (%) 14 Days After Application, ECHCG.
The mark [14] stands for this setting: ORYSA: rice (Oryza sativa), read-out: Visual Growth Reduction (%) 14 Days After Application, ORYSA.
Setting [15] is: SETFA: giant foxtail (Setaria faberi), read-out: Visual Growth Reduction (%) 14 Days After Application, SETFA.
Where [16] appears, read: SORVU: grain sorghum (Sorghum vulgare), read-out: Visual Growth Reduction (%) 14 Days After Application, SORVU.
[17] abbreviates: ZEAMX: maize, corn (Zea mays), read-out: Visual Growth Reduction (%) 14 Days After Application, ZEAMX.

As usually defined, the melting point is the temperature of the solid-liquid transition.

Consider `C#Cc1ccc(-c2nc(C(=O)O)c(Cl)c(N)c2Cl)cc1` [Compound 153], for which the melting point was in the range of 160.9 to 162.6 °C. The pest or weed control at 140 g/ha in data set [1] (setting [3]) was in the range of 95 to 100%. Also, the pest or weed control at 140 g/ha in data set [1] (setting [4]) was in the range of 95 to 100%. The pest or weed control at 140 g/ha in data set [1] (setting [5]) was in the range of 95 to 100%. In data set [1] (setting [6]), the pest or weed control at 140 g/ha was 95 to 100%. In data set [1] (setting [7]), the pest or weed control at 140 g/ha lay in the range of 0 to 29%. In addition, the pest or weed control at 140 g/ha in data set [1] (setting [8]) fell in the range of 95 to 100%. In addition, the pest or weed control at 140 g/ha in data set [1] (setting [9]) lay in the range of 0 to 29%. Further, in data set [2] (setting [10]), the pest or weed control at 140 g/ha is 60 to 74%. Further, the pest or weed control at 140 g/ha in data set [2] (setting [11]) lay within 45 to 59%. Besides, in data set [2] (setting [12]), the pest or weed control at 140 g/ha lay in the range of 45 to 59%. In data set [2] (setting [13]), the pest or weed control at 140 g/ha lay in the range of 0 to 29%. In addition, in data set [2] (setting [14]), the pest or weed control at 140 g/ha was in the range of 0 to 29%. In addition, the pest or weed control at 140 g/ha in data set [2] (setting [15]) lay in the range of 75 to 84%. Further, the pest or weed control at 140 g/ha in data set [2] (setting [16]) was 0 to 29%. Further, the pest or weed control at 140 g/ha in data set [2] (setting [17]) was 60 to 74%.

In turn, `C#Cc1ccc(-c2nc(N)c(OC)c(C(=O)OC)n2)cc1` [Compound 166] gave a melting point of 148.2 to 150.9 °C. Also, the pest or weed control at 140 g/ha in data set [1] (setting [3]) was 0 to 29%. In data set [1] (setting [4]), the pest or weed control at 140 g/ha was in the range of 95 to 100%. Further, the pest or weed control at 140 g/ha in data set [1] (setting [5]) was 0 to 29%. In data set [1] (setting [6]), the pest or weed control at 140 g/ha is 60 to 74%. In addition, the pest or weed control at 140 g/ha in data set [1] (setting [7]) was in the range of 95 to 100%. In addition, the pest or weed control at 140 g/ha in data set [1] (setting [8]) lay within 85 to 94%. Further, the pest or weed control at 140 g/ha in data set [1] (setting [9]) lay in the range of 0 to 29%. For the same molecule, in data set [2] (setting [10]), the pest or weed control at 140 g/ha fell in the range of 0 to 29%. Further, the pest or weed control at 140 g/ha in data set [2] (setting [11]) was in the range of 45 to 59%. Moreover, the pest or weed control at 140 g/ha in data set [2] (setting [12]) lay in the range of 0 to 29%. Further, in data set [2] (setting [13]), the pest or weed control at 140 g/ha lay within 0 to 29%. Further, the pest or weed control at 140 g/ha in data set [2] (setting [14]) was 0 to 29%. Further, the pest or weed control at 140 g/ha in data set [2] (setting [15]) lay within 0 to 29%. Also, the pest or weed control at 140 g/ha in data set [2] (setting [16]) fell in the range of 0 to 29%. Also, the pest or weed control at 140 g/ha in data set [2] (setting [17]) lay within 45 to 59%.

On to `COC(=O)c1nc(-c2ccc(OC(F)(F)F)cc2)c(Cl)c(N)c1Cl` [Compound 170], for which the melting point is 178.9 to 180.2 °C. Moreover, in data set [1] (setting [3]), the pest or weed control at 140 g/ha was in the range of 0 to 29%. The pest or weed control at 140 g/ha in data set [1] (setting [4]) was in the range of 0 to 29%. Moreover, the pest or weed control at 140 g/ha in data set [1] (setting [5]) was 0 to 29%. The pest or weed control at 140 g/ha in data set [1] (setting [6]) lay within 60 to 74%. In addition, in data set [1] (setting [7]), the pest or weed control at 140 g/ha is 0 to 29%. In data set [1] (setting [8]), the pest or weed control at 140 g/ha was in the range of 85 to 94%. Also, the pest or weed control at 140 g/ha in data set [1] (setting [9]) fell in the range of 0 to 29%. Also, the pest or weed control at 140 g/ha in data set [2] (setting [10]) lay in the range of 0 to 29%. In addition, the pest or weed control at 140 g/ha in data set [2] (setting [11]) was in the range of 0 to 29%. In addition, the pest or weed control at 140 g/ha in data set [2] (setting [12]) lay in the range of 0 to 29%. In data set [2] (setting [13]), the pest or weed control at 140 g/ha was 0 to 29%. Moreover, the pest or weed control at 140 g/ha in data set [2] (setting [14]) is 0 to 29%. The pest or weed control at 140 g/ha in data set [2] (setting [15]) was 0 to 29%. For the same molecule, the pest or weed control at 140 g/ha in data set [2] (setting [16]) is 0 to 29%. Also, the pest or weed control at 140 g/ha in data set [2] (setting [17]) lay within 0 to 29%.
